Measurements as given in PMC10041537, “Molecular origins of mutational spectra produced by the environmental carcinogen N-nitrosodimethylamine and SN1 chemotherapeutic agents” (NAR Cancer, 2023).

Tested on: gpt reporter gene
Assay type: in vivo, RaDR^R/R;gpt^g/g;Mgmt^−/− mice
Details: liver, NDMA-treated Mgmt−/− vs NDMA-treated WT
Method: Most experiments utilized C57BL/6J gptΔ transgenic mice ([49],[50]), a gift from T. Nohmi. Some experiments used RaDR^R/R;gpt^g/g;Mgmt^−/− mice, which were created by crossing RaDR^R/R;gpt^g/gmice ([37]) with Mgmt^−/− mice ([51]). NDMA was synthesized and characterized as previously described ([52]) (Fig. S1). […] The first dose (3.5 mg/kg in 10 μl) was administered at 8 days of age, and the second dose (7 mg/kg in 20 μl) was administered at 15 days of age. Vehicle treated mice were administered equivalent volumes of saline. Mice were euthanized at ten weeks post-injection by CO2 inhalation. Both male and female mice were used in all experimental groups (n = 5) in all mouse experiments.
The gptΔ assay is the technology traditionally used with the gptΔ mouse to probe for small mutations in the 459 bp gpt transgene, of which approximately 160 copies exist in the mouse diploid genome ([50]). […]
The λ-EG10 phage was packaged in vitro from genomic DNA using a Transpack packaging extract (Agilent Technologies) and then transfected into E. coli YG6020 expressing Cre-recombinase, generating a 6.4 kb plasmid carrying the gpt and chloramphenicol acetyltransferase genes. […] The mutant frequency of each group was calculated (ratio of total 6-TG-resistant colonies to the average of chloramphenicol resistant colonies). The samples were processed and analyzed in a blinded fashion. […]

CN(C)N=O [NDMA, N-nitrosodimethylamine]
enhanced mutant frequency in Mgmt−/− vs wild-type mice, females (females): 3 fold
enhanced mutant frequency in Mgmt−/− vs wild-type mice, males (males): 4 fold
